Calls of active or inactive are those of the source.
Experiments:
[1] = A Cell Based Secondary Assay to Explore Cytotoxicity in THP-1 Cells of Compounds that Modulate Mycobacterium tuberculosis in Media Containing Glycerol versus Media without Glycerol (2).; format: functional
[2] = DRD fibroblast viability loss – cell-based, non-viral oncogenic, luminescence, dose response (AID 1934); format: functional; conditions: Homo sapiens
[3] = THP-1 cell cytotoxicity, cytotoxicity control, set 4 (AID 504911); format: functional; conditions: Mycobacterium tuberculosis
Streptococcus = test: GAS UMAA2166 growth inhibition – luminescence, BacTiterGlo, counter-screen for streptokinase expression inhibitor project, dose response (AID 1915); format: functional, organism-based;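 note: potency for reduction of bacterial viability or growth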
Streptokinase A = molecular target: T1, Streptokinase A (Streptococcus pyogenes serotype M1, UniProt P10520); test: viability-normalized secreted streptokinase activity reduction – plasminogen activation absorbance, OD405, dose response (AID 1914); format: functional, Streptococcus pyogenes M1 GAS;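 note: secreted streptokinase activity via plasminogen activation per viability signal from cell pellet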
T1 sequence (P10520 whole entry): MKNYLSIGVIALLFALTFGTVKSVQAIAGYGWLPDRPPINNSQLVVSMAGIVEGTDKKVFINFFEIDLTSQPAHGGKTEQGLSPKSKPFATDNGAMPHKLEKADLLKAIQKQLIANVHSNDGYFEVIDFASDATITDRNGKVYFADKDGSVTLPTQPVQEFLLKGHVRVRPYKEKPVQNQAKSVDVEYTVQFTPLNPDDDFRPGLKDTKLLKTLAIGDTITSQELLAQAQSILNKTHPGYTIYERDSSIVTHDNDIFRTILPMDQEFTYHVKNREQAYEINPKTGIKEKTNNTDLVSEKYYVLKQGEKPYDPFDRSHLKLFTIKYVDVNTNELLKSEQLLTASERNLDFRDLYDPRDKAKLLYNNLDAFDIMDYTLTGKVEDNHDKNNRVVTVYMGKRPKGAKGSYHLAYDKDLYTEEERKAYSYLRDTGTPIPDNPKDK

[4] = A Cell Based Secondary Assay to Explore Cytotoxicity in HepG2 Cells of Compounds that Modulate Mycobacterium tuberculosis in Media Containing Glycerol versus Media without Glycerol (2).; format: functional
BJ [5] = test: cells; format: functional, cell-based; conditions: Homo sapiens
INS1 = test: INS-1E survival protection against cytokine death – cell-based, luminescence, retest, dose response (AID 449756); format: functional; conditions: Rattus norvegicus;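 note: cell death triggered by IL-1 beta plus TNF-alpha plus IFN-gamma mixture; protective hits raise ATP signal compared with cytokine alone wells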
BJ [6] = test: BJ-TERT-LT-ST fibroblast viability loss – cell-based, RAS-independent, luminescence, dose response (AID 1935); format: functional; conditions: Homo sapiens;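 note: BJ fibroblasts immortalized with TERT plus LT and ST oncogenes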
[7] = Vero cell cytotoxicity, cytotoxicity control for M. tuberculosis inhibitor project, purified and synthesized samples, set 3 (AID 504684); format: functional
[8] = molecular target: Heat shock protein HSP 90-alpha (Homo sapiens, UniProt P07900); format: functional, organism-based
BJ [9] = test: BJ-TERT fibroblast viability loss – cell-based, RAS-independent, luminescence, dose response (AID 1933); format: functional; conditions: Homo sapiens
[10] = THP-1 cell cytotoxicity, dose response, cytotoxicity control, set 3 (AID 504852); format: functional; conditions: Mycobacterium tuberculosis
[11] = molecular target: T2, Heat shock factor protein 1 (Mus musculus, UniProt P38532); test: enhancement of HSF1-driven luciferase signal – cell-based, NIH3T3, luminescence, dose retest, confirmation (AID 435004); format: functional;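 note: stress induced by proteasome inhibitor MG132 added 30 min after compound; luciferase reporter driven by HSF1 response element in NIH3T3 cells; actives raise luminescence as potentiators of the MG132 stress response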
T2 sequence (P38532 whole entry): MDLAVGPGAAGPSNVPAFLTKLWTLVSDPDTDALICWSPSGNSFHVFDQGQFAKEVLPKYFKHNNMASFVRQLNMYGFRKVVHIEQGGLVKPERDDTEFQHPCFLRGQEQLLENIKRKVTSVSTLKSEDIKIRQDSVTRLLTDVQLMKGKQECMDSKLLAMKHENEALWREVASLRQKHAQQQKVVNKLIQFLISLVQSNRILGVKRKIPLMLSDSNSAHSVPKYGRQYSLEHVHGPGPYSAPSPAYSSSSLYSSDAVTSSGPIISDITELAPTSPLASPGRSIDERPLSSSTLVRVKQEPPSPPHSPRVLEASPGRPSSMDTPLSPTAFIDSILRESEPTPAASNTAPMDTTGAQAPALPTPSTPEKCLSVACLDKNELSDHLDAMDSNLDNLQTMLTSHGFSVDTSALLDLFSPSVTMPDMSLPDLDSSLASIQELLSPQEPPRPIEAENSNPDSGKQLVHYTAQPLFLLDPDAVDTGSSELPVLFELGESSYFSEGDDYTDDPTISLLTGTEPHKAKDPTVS

[12] = tested on: Streptococcus sp. 'group A'; test: Streptococcus pyogenes SK(-)GAS viability under kanamycin – luminescence, BacTiterGlo, confirmation, counter-screen for streptokinase expression inhibitor project, dose response (AID 1900); format: functional, organism-based
[13] = microbe, parasite or virus in culture; format: functional; conditions: Mycobacterium tuberculosis
Caspase-3 = molecular target: T3, Caspase-3 (Homo sapiens, UniProt P42574); test: SAR Analysis of small molecule inhibitors of Sentrin-specific proteases (SENPs) using a Caspase-3 Selectivity assay. [Related pubchem assays (depositor defined):AID2540, AID2599, AID434973, AID489001]; format: functional
T3 sequence (P42574 whole entry): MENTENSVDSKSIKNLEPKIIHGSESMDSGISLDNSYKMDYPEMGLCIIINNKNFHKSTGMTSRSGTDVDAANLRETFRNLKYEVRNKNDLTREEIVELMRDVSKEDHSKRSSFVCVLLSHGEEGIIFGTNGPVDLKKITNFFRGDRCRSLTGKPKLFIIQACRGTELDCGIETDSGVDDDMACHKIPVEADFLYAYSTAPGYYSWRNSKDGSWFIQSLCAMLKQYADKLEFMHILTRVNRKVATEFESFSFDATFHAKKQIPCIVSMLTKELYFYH

[14] = molecular target: T4, Sentrin-specific protease 8 (Homo sapiens, UniProt Q96LD8); test: inhibition of human SENP8 cleavage activity – biochemical, luminescence, SAR follow-up (AID 504501); format: functional
T4 sequence (Q96LD8 whole entry): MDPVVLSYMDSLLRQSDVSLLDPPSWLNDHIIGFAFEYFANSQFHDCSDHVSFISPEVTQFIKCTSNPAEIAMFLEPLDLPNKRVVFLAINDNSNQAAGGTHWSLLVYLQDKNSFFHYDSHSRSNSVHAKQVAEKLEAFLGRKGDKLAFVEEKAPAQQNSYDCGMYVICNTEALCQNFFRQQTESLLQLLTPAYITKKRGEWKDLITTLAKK

[15] = molecular target: T5, Sentrin-specific protease 6 (Homo sapiens, UniProt Q9GZR1); test: SAR Analysis of small molecule inhibitors of Sentrin-specific protease 6 (SENP6) using a Luminescent assay. [Related pubchem assays (depositor defined):AID2582, AID2599]; format: functional
T5 sequence (Q9GZR1 whole entry): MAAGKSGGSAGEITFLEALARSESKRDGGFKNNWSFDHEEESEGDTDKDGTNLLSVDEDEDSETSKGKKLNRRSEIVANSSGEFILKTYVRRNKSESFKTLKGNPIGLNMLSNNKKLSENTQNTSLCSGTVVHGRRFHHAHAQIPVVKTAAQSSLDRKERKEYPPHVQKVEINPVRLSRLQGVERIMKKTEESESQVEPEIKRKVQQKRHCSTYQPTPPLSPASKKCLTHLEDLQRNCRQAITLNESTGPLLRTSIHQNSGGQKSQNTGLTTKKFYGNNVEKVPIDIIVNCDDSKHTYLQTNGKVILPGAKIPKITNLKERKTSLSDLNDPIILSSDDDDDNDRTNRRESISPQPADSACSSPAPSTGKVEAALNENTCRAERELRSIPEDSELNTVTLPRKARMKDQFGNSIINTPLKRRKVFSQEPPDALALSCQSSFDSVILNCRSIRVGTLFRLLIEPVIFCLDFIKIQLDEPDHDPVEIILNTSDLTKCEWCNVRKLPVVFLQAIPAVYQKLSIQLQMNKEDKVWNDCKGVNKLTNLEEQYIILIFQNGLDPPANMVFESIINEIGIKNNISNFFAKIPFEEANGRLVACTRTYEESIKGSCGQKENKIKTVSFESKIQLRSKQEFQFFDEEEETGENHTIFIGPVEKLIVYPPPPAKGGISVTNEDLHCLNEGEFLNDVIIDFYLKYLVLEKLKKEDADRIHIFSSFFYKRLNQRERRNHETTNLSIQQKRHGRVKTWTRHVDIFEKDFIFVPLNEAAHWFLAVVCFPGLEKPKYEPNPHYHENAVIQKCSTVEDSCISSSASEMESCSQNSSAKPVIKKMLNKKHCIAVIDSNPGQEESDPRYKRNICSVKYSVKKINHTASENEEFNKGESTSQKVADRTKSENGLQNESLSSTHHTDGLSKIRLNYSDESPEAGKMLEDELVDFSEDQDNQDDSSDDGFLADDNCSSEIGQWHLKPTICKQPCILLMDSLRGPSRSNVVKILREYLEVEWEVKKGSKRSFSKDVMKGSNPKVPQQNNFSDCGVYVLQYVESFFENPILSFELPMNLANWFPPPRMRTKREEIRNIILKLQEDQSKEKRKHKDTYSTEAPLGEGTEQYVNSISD

[16] = molecular target: T6, Sentrin-specific protease 7 (Homo sapiens, UniProt Q9BQF6); test: inhibition of human SENP7 cleavage activity – biochemical, luminescence, SAR follow-up (AID 504497); format: functional
T6 sequence (Q9BQF6 whole entry): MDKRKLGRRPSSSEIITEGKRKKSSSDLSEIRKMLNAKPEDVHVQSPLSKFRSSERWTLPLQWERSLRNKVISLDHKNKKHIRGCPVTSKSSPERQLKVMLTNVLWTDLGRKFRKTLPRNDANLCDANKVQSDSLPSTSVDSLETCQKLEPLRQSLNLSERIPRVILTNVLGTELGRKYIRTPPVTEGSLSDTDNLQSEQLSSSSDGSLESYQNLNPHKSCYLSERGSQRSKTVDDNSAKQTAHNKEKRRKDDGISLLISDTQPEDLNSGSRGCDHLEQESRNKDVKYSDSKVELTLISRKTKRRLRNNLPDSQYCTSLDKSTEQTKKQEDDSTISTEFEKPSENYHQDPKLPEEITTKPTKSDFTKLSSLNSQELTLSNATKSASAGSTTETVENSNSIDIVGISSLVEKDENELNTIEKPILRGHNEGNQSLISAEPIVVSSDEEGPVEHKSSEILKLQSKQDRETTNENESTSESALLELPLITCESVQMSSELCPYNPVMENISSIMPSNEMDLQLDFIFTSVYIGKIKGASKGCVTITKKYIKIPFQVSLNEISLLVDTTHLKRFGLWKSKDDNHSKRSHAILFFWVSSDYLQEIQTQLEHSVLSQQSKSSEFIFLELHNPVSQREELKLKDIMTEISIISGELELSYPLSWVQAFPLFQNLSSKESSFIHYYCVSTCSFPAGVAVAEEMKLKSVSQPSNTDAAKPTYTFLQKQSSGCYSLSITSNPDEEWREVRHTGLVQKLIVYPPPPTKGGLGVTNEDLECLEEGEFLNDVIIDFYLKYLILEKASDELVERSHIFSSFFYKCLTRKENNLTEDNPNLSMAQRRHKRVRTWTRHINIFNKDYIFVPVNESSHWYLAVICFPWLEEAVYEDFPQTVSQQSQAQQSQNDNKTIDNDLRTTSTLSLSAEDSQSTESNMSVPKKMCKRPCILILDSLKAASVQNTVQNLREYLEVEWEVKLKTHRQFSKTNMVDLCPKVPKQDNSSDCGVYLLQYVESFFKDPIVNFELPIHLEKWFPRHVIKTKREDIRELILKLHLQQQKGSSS

Row | Structure (SMILES) | CC50 [1] | EC50 [2] | CC50 [3] | EC50 (Streptococcus) | EC50 (Streptokinase A) | CC50 [4] | EC50 (BJ [5]) | AC50 (INS1) | EC50 (BJ [6]) | CC50 [7] | AC50 [8] | EC50 (BJ [9]) | CC50 [10] | EC50 [11] | EC50 [12] | CC50 [13] | IC50 (Caspase-3) | IC50 [14] | IC50 [15] | IC50 [16]
1 | Cc1cccc(/C=C/C(=O)c2ccc([N+](=O)[O-])o2)c1 | 12.2 µM (active) | 2.23 µM (active) | > 100 µM (active) | 14.4 µM (active) | 9.69 µM (active) | 8.39 µM (active) | > 150 µM (inconclusive) | 3.29 µM (active) | > 150 µM (inconclusive) | 12.4 µM (active) | 2.39 µM (active) | > 150 µM (not active) | > 100 µM (active) | 3.43 µM (inconclusive) | 3.96 µM (active) | 18.8 µM (active) |  |  |  | 
2 | NS(=O)(=O)c1ccc(CCNC(=O)c2sc3cc(Cl)ccc3c2Cl)cc1 |  |  |  |  |  |  |  |  |  |  |  |  |  |  |  |  | > 99 µM (inactive) | > 99 µM (inactive) | > 99 µM (inactive) | > 99 µM (inactive)

— ChEMBL document CHEMBL1201862, “PubChem BioAssay data set” (2004)
